The subject of experiment [1] is ZR-75-1. Particulars: 24 h.
Experimental: (§1) Cells were plated at 5000 cells/well (cancer cells) or 10,000 cells/well (PBMCs) in a 96-well plate and allowed to attach for 24 h. Cells were then treated with various concentrations of compounds for the times indicated in the different figures. At each time point, the viability of cells was measured using MTT assay. In brief, each well was treated with 20 µL of MTT reagent (5 mg/mL in 1x DPBS) and incubated at 37 °C for 3 h. After 3 h, 100 µL of MTT solvent (90% Isopropanol, 10% Triton X-and 0.4% 1M HCl) was added to each well and the plate was covered from light while shaking for 20 min. The absorbance of solubilized MTT reagent was measured using spectrophotometer at 590 nm. In some experiments with PBMCs, the ATP assay was used to assess cell viability by following manufacture’s instruction. […] Cells were then incubated at 37 °C for the indicated time points on the figure and then treated with equivalent volume of CellTiter-Glo reagent. The plate was rocked for 10 min and luminescence intensity was read using spectrophotometer.
The subject of experiment [2] is T47D. The settings on record: 24 h.
Experimental: as §1
Experiment [3] relates to MDA-MB-468. The settings on record: 24 h.
Experimental: as §1
The test system of experiment [4] is MCF7-G11-TR1. The settings on record: 24 h.
Experimental: as §1
Experiment [5] has as its system MCF7-G11-TR5. Particulars: 24 h.
Experimental: as §1
Experiment [6] deals with MDA-MB-231. The settings on record: 24 h.
Experimental: as §1
Experiment [7] relates to SKBR3. The settings on record: 24 h.
Experimental: as §1
Experiment [8] deals with MCF7. Particulars: 24 h.
Experimental: as §1
Experiment [9] concerns MCF-10a. Particulars: 24 h.
Experimental: as §1
Experiment [10] concerns PBMCs. The settings on record: 24 h.
Experimental: as §1
Experiment [11] has as its system recombinant BST-2 (rBST-2). Kind of experiment: UV absorbance (230 nm) centrifugal filter binding assay. Particulars: 2 mg/mL B18L, 1 mg/mL rBST-2, 37 °C 45 min, 3000 NMWL filter, 13,000 rpm 1 h, UV 230 nm. On the procedure: To validate the MD simulation data, we used UV absorbance based assay to assess the binding affinity of B18L to BST-2 (B18L•BST-2). Following incubation of B18L with rBST-2 or controls (B18L alone and rBST-2 alone) at 37 °C for 45 min, each compound or the B18L•BST-2 mixture was placed in centrifugal filters and spun at 13,000 rpm for 1 h (Figure 2I). Absorbance of compounds (i) prior to addition to the filter (input), (ii) on the apical side of the filter (retained), (iii) in the collection tube (flow through) were obtained and converted to compound concentration using the standard curves (Figure 2J).
B18L (MW = 1.683 kDa), the rBST-2 (MW = 5.832 kDa) and the mixture of B18L and rBST-2 (B18L•BST-2) were titrated with UV spectroscopy at 230 nm to obtain the standard curve. 2 mg/mL of B18L and 1 mg/mL of rBST-2 were preincubated at 37 °C for 45 min. 200 μL mixture was then subjected to the ultracentrifuge tube with 3000 NMWL filter and centrifuged at 13,000 rpm for 1 h. Absorbance of the compounds i) before spin designated as input, ii) compounds left on the apical side of the membrane designated as retained and iii) compounds in the basal side of the tube designated as the flow through were measured with UV spectroscopy. The standard curve was used to extrapolate protein concentrations from the absorbance measurements.

Where two headings read alike, the source gives them in different places. Residues, ends and D or L forms follow the SMILES beside them.

For orientation: IC50 means the concentration needed to halve the response being measured. The low end stands for greater potency in that assay, the high end for weaker potency in that assay.

As for `CC(C)C[C@H](NC(=O)[C@H](C)NC(=O)[C@H](CCCCN)NC(=O)[C@H](C)NC(=O)[C@H](CC(C)C)NC(=O)[C@H](CS)NC(=O)[C@H](C)NC(=O)[C@H](CC(C)C)NC(=O)[C@H](C)NC(=O)[C@H](CCCCN)NC(=O)[C@H](C)NC(=O)[C@H](CCCCN)NC(=O)[C@H](C)NC(=O)[C@H](CCCCN)NC(=O)[C@H](CCC(N)=O)NC(=O)[C@H](Cc1ccccc1)NC(=O)CN)C(=O)N[C@@H](C)C(=O)O` [B18KA] (H-GFQKAKAKALACLAKALA-OH), the IC50 in experiment [1] came out at 58.9 ± 2 µM; in [2] it was 78.5 ± 20.9 µM; in [3], 136 ± 9.3 µM; in [4] it was 61.8 ± 5.1 µM; in [5] it was 56.4 ± 5 µM; in experiment [6], 83.7 ± 20.1 µM. In addition, the IC50 in [7] came to 43.5 ± 11.5 µM; in experiment [8], 61.8 ± 3.9 µM.

Take `CSCC[C@H](NC(=O)[C@@H](NC(=O)[C@@H](NC(=O)[C@H](Cc1c[nH]cn1)NC(=O)[C@H](CC(N)=O)NC(=O)[C@H](CS)NC(=O)[C@@H](NC(=O)[C@H](C)NC(=O)[C@H](C)NC(=O)[C@H](CCC(N)=O)NC(=O)[C@H](C)NC(=O)[C@H](CCCCN)NC(=O)[C@@H](NC(=O)[C@H](CCCCN)NC(=O)[C@H](CCC(N)=O)NC(=O)[C@H](Cc1ccccc1)NC(=O)CN)C(C)C)[C@@H](C)O)[C@@H](C)O)C(C)C)C(=O)N[C@@H](C)C(=O)O` [B18K] (H-GFQKVKAQAATCNHTVMA-OH; N-terminus and C-terminus assumed): the IC50 in experiment [1] was above 131 µM; in [2] it was above 131 µM; in [3] (MDA-MB-468 (Basal A), MTT) it was above 131 µM; in [4], above 131 µM; in experiment [5] it was above 131 µM; in experiment [6] it was above 131 µM. In addition, the IC50 in experiment [8] (MCF7 (drug-sensitive), MTT) is above 131 µM.

On to `CSCC[C@H](NC(=O)[C@@H](NC(=O)[C@@H](NC(=O)[C@H](Cc1c[nH]cn1)NC(=O)[C@H](CC(C)C)NC(=O)[C@H](CS)NC(=O)[C@@H](NC(=O)[C@H](CC(C)C)NC(=O)[C@H](C)NC(=O)[C@H](CCC(N)=O)NC(=O)[C@H](C)NC(=O)[C@H](CCCCN)NC(=O)[C@@H](NC(=O)[C@H](CCCCN)NC(=O)[C@H](CCC(N)=O)NC(=O)[C@H](Cc1ccccc1)NC(=O)CN)C(C)C)[C@@H](C)O)[C@@H](C)O)C(C)C)C(=O)N[C@@H](C)C(=O)O` [B18KL] (H-GFQKVKAQALTCLHTVMA-OH; N-terminus and C-terminus assumed), for which the IC50 in experiment [1], in experiment [2], in experiment [3], in experiment [4], in [5] and in [6] was above 128 µM throughout. The IC50 in experiment [7] and in experiment [8] was above 128 µM in each case.

Regarding `CC[C@H](C)[C@H](NC(=O)CN)C(=O)NCC(=O)N[C@@H](CCCCN)C(=O)N[C@@H](C)C(=O)N[C@H](C(=O)N[C@@H](C)C(=O)N[C@@H](CCCCN)C(=O)N[C@@H](C)C(=O)N[C@H](C(=O)N[C@@H](C)C(=O)N[C@@H](CS)C(=O)N[C@H](C(=O)N[C@@H](C)C(=O)N[C@@H](CCCCN)C(=O)N[C@@H](C)C(=O)N[C@H](C(=O)N[C@@H](C)C(=O)O)[C@@H](C)CC)[C@@H](C)CC)[C@@H](C)CC)[C@@H](C)CC` [B18I] (H-GIGKAIAKAIACIAKAIA-OH), the concentration for half-maximal inhibition (IC50) in experiment [1] is 10.1 ± 1.8 µM; in experiment [2], above 148 µM; in [3], 16.6 ± 1.5 µM; in experiment [4] it was 10.8 ± 2 µM; in [5], 16.1 ± 4.9 µM; in experiment [6], 18.6 ± 2.4 µM. For the same molecule, the IC50 came to 18.1 ± 4.7 µM in [7] and 16 ± 1.6 µM in experiment [8].

Regarding `CC(C)C[C@H](NC(=O)CN)C(=O)NCC(=O)N[C@@H](CCCCN)C(=O)N[C@@H](C)C(=O)N[C@@H](CC(C)C)C(=O)N[C@@H](C)C(=O)N[C@@H](CCCCN)C(=O)N[C@@H](C)C(=O)N[C@@H](CC(C)C)C(=O)N[C@@H](C)C(=O)N[C@@H](CS)C(=O)N[C@@H](CC(C)C)C(=O)N[C@@H](C)C(=O)N[C@@H](CCCCN)C(=O)N[C@@H](C)C(=O)N[C@@H](CC(C)C)C(=O)N[C@@H](C)C(=O)O` [B18L] (H-GLGKALAKALACLAKALA-OH), the IC50 in [1] amounted to 5.2 ± 1 µM; in [2], 17.5 ± 6.5 µM; in experiment [3], 12.4 ± 1.4 µM; in experiment [4], 6.2 ± 0.8 µM; in experiment [9], 17.2 ± 6.4 µM; in experiment [5] it was 3.8 ± 0.3 µM. Moreover, the IC50 was determined as 7.2 ± 0.8 µM in [6], 7.2 ± 1 µM in experiment [7], 39.8 ± 3.8 µM in experiment [10] and 5.9 ± 0.5 µM in experiment [8].

B1: BST-2: recombinant BST-2 (MW = 5.832 kDa), extracellular domain, binding partner and control (protein, UniProt Q10589 49-161, looked up)
extracellular domain: NSEACRDGLRAVMECRNVTHLLQQELTEAQKGFQDVEAQAATCNHTVMALMASLDAEKAQGQKKVEELEGEITTLNHKLQDASAEVERLRRENQVLSVRIADKKYYPSSQDSS
modifications: extracellular domain
Consider B1, for which, in experiment [11], the in the flow-through is on record as 21% and the “retained on the apical side of the filter” value came out at 78%.

The record behind these values is paper PMC7563317, “Development of a Cationic Amphiphilic Helical Peptidomimetic (B18L) As A Novel Anti-Cancer Drug Lead” (Cancers, 2020).
